The source made the active and inactive calls.
Tests used:
[1] = cells; format: functional, cell-based
[2] = cells; format: functional
[3] = tested on: Salmon testes DNA; experiment: acridine orange-DNA binding displacement – biochemical, fluorescence polarization, cherry-picked samples, set 2, artefact control for KSHV LANA DNA-binding inhibitor project, dose response (AID 504727); parameters: species or system Salmonidae
[4] = tested on: HeLa; experiment: viability loss in HeLa cells – cell-based, 24 h, cherry-picked samples, cytotoxicity control, dose response (AID 504726); format: functional; conditions: Homo sapiens;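 further: potency for cytotoxicity as loss of luminescence signal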
[5] = cells; format: functional, cell-based; remark: listed apart in the source
[6] = biological target: T1, Dual specificity protein phosphatase 6 (Rattus norvegicus, UniProt Q64346)
T1 sequence (Q64346 whole entry): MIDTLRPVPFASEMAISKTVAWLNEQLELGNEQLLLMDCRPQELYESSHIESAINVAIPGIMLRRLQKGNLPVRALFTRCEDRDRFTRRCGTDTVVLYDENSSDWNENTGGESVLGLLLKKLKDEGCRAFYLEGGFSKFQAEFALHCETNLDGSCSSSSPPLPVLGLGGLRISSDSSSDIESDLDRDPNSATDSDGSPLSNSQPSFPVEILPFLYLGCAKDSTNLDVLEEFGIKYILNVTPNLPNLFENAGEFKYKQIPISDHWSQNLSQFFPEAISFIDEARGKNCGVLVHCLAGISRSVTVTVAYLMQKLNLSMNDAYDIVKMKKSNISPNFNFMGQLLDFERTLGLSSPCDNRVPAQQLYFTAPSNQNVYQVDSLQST

[7] = biological target: T2, Bcl-2-like protein 10 (Homo sapiens, UniProt Q9HD36); experiment: Bcl-B/TR3 peptide binding disruption – biochemical, fluorescence polarization, FITC-TR3 peptide, selectivity assay for Bfl-1 inhibitor project, primary screen (AID 748);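 further: fluorescence polarization from a fluorescein-labelled TR3 peptide binding purified Bcl-B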
T2 sequence (Q9HD36 whole entry): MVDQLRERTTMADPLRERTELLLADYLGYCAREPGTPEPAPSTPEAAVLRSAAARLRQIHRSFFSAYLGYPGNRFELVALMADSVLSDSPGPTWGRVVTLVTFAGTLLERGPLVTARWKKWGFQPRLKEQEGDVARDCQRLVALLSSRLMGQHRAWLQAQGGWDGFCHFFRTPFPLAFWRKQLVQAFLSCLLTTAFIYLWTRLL

[8] = biological target: T1, Dual specificity protein phosphatase 6; format: functional
[9] = biological target: Glyceraldehyde-3-phosphate dehydrogenase (Homo sapiens, UniProt P04406)
[10] = biological target: Large T antigen (Simian virus 40, UniProt P03070); format: functional, Betapolyomavirus macacae;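 further: Confirmatory-stage PubChem screen for compounds that inhibit SV40 T antigen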
[11] = biological target: Induced myeloid leukemia cell differentiation protein Mcl-1 (Homo sapiens, UniProt Q07820); format: functional
[12] = biological target: T3, E3 ubiquitin-protein ligase XIAP (Homo sapiens, UniProt P98170); experiment: Counter Screen using XIAP-Bir3 for Chemical Antagonists of Bir1/2 domains of IAP-family anti-apoptotic proteins. [Related pubchem assays (depositor defined):AID1018, AID1449, AID1514, AID1638, AID1749, AID1750, AID488957, AID488963]
[13] = biological target: Heat shock cognate 71 kDa protein (Homo sapiens, UniProt P11142); experiment: In Vitro Hsc70 Dose Response Fluorescence Polarization Assay. [Related pubchem assays: 1072 ]
[14] = biological target: Heat shock 70 kDa protein 1A (Homo sapiens, UniProt P0DMV8); experiment: inhibition of Hsp70 binding activity – biochemical, fluorescence polarization, SAR follow-up (AID 1072)
[15] = biological target: Eukaryotic translation initiation factor 4E (Mus musculus, UniProt P63073); experiment: blockers of eIF4G binding by eIF4E – biochemical, TR-FRET, dose response (AID 855); format: functional;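 further: potency for disrupting eIF4E binding to eIF4GI seen as loss of FRET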
[16] = biological target: T4, Tyrosine-protein phosphatase non-receptor type 7 (Homo sapiens, UniProt P35236); format: functional
T4 sequence (P35236 whole entry): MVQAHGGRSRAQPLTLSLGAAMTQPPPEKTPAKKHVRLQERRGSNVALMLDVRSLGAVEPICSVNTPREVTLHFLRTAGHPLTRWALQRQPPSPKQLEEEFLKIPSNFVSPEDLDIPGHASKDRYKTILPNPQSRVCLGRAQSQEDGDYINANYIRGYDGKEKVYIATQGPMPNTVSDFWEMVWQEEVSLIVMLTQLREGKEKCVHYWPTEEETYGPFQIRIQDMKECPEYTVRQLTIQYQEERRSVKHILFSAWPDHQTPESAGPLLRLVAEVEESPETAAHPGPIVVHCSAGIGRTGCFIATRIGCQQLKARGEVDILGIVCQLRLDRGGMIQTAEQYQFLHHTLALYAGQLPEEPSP

[17] = biological target: T1, Dual specificity protein phosphatase 6; experiment: inhibition of rat DUSP6 enzyme activity – biochemical, in vitro, primary screen (AID 425)
[18] = biological target: T3, E3 ubiquitin-protein ligase XIAP; experiment: small molecules displacing peptide from XIAP – biochemical, IAP family, fluorescence polarization (AID 1018); format: functional
[19] = biological target: T5, Ubiquitin-conjugating enzyme E2 N (Homo sapiens, UniProt P61088); format: functional;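 further: Dose-response confirmation in a TR-FRET assay detecting UBC13-driven polyubiquitin chain formation, inhibition measured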
T5 sequence (P61088 whole entry): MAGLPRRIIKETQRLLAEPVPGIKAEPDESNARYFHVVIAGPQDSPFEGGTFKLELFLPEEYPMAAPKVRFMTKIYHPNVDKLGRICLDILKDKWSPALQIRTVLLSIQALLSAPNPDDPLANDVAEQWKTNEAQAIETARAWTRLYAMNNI

[20] = biological target: Neurotensin receptor type 1 (Homo sapiens, UniProt P30989); format: functional;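 further: Image-based confirmatory dose-response assay measuring agonist activity at NTR1; NTR1-expressing U2OS osteosarcoma cells imaged for beta-arrestin GFP spot formation; agonist potency where compounds increase beta-arrestin recruitment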
[21] = Luminescence Cell-Based Dose Retest to Confirm Inhibitors of Cancer Stem Cells. [Related pubchem assays (depositor defined):AID2717, AID2721]; format: functional; conditions: Homo sapiens
[22] = biological target: Transitional endoplasmic reticulum ATPase (Homo sapiens, UniProt P55072); experiment: Luminescence dose response biochemical high throughput screening assay for inhibitors of the p97 ATPase: synthesized compounds. [Related pubchem assays: 1481, 1517 ]
[23] = biological target: Transitional endoplasmic reticulum ATPase (Homo sapiens, UniProt P55072, C522A); experiment: Luminescence counterscreen assay for p97 inhibitors: dose response biochemical high throughput screening assay to identify inhibitors of the C522A mutant p97 ATPase: synthesized compounds. [Related pubchem assays: 1481, 1517, 1551 ]
[24] = biological target: Collagenase 3 (Homo sapiens, UniProt P45452); experiment: potency against MMP13, MMP2, MMP3, MMP14 – biochemical, probe development, late stage results, selectivity assay for MMP13 inhibitor project, late-stage follow-up, panel member MMP-13 [IC50 Assay] (AID 2067)
[25] = biological target: Neutrophil collagenase (Homo sapiens, UniProt P22894); experiment: potency against MMP13, MMP2, MMP3, MMP14 – biochemical, probe development, late stage results, selectivity assay for MMP13 inhibitor project, late-stage follow-up, panel member MMP-8 [IC50 Assay] (AID 2067)
[26] = biological target: Wee1-like protein kinase (Homo sapiens, UniProt P30291); experiment: HeLa cell cycle G2/M accumulation – FACS, mechanism study for Wee1 degradation inhibitor project, late-stage follow-up, panel member Wee1 Degradation (AID 2088)
[27] = biological target: G2/mitotic-specific cyclin-B1 (Homo sapiens, UniProt P14635); experiment: HeLa cell cycle G2/M accumulation – FACS, mechanism study for Wee1 degradation inhibitor project, late-stage follow-up, panel member Cyclin B Degradation (AID 2088)
[28] = biological target: Melanin-concentrating hormone receptor 1 (Homo sapiens, UniProt Q99705); experiment: Late-stage fluorescence-based counterscreen for antagonists of the G-protein coupled receptor 7 (GPR7): cell-based dose response assay to identify antagonists of the melanin-concentrating hormone receptor 1 (MCHR1). [Related pubchem assays (depositor defined):AID1861, AID1880, AID1952, AID2148, AID2251, AID2257, AID485339]; format: functional;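 further: stimulated with 30 nM MCH peptide agonist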
[29] = biological target: T6, Neuropeptides B/W receptor type 1 (Homo sapiens, UniProt P48145); experiment: human NPBW1 receptor blockade, IC50 – cell-based, fluorescence, dose response, late-stage follow-up (AID 463251); format: functional
T6 sequence (P48145 whole entry): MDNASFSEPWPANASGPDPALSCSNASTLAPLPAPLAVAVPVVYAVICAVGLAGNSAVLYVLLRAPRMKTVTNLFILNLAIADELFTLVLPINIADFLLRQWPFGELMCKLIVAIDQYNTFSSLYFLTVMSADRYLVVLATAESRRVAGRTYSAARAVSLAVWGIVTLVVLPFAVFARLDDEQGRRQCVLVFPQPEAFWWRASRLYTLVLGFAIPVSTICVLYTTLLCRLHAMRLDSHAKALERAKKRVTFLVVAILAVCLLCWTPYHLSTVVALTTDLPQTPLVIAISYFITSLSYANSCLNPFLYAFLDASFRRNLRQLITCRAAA

[30] = biological target: T7, Beta-galactosidase (Escherichia coli, UniProt Q8VNN2); format: functional
[31] = mammalian cell viability loss – Alamar Blue, dry powder, cytotoxicity control for antifungal single agent project, dose response (AID 602188); format: functional, cell-based
[32] = fluconazole-exposed Candida albicans growth modulators – fluorescence, retest, confirmation (AID 2467); format: functional, cell-based
[33] = tested on: Vero; experiment: viability of Vero cells under compound – cytotoxicity control for flavivirus capping enzyme inhibitors (AID 588742); format: functional; conditions: Chlorocebus sabaeus
[34] = biological target: Heat shock protein HSP 90-alpha (Homo sapiens, UniProt P07900); format: functional, organism-based
[35] = biological target: ATP-dependent molecular chaperone HSP82 (Candida albicans (strain WO-1) (Yeast), UniProt C4YTQ8); experiment: steroid-induced GRE reporter decrease in yeast – S. cerevisiae, luminescence, Hsp90 inhibitor project, dose response (AID 2400); format: functional, cell-based;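 further: beta-galactosidase luminescence from glucocorticoid response element reporter as proxy for Hsp90 function; inhibitor potency where signal loss means Hsp90 inhibition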
[36] = biological target: T8, Kappa-type opioid receptor (Homo sapiens, UniProt P41145); format: functional
[37] = tested on: INS1; experiment: INS-1E survival protection against cytokine death – cell-based, luminescence, retest, dose response (AID 449756); format: functional; conditions: Rattus norvegicus;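 further: cell death triggered by IL-1 beta plus TNF-alpha plus IFN-gamma mixture; protective hits raise ATP signal compared with cytokine alone wells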
[38] = biological target: Nonstructural protein 1 (Influenza A virus, UniProt Q194T2); format: functional, Influenza A virus (A/California/07/2009(H1N1))
[39] = biological target: T7, Beta-galactosidase; experiment: Dose response counterscreen for EBI2 assay utilizing the enzyme, b-galactosidase.; format: functional
[40] = NIH-3T3 fibroblast cytotoxicity, dose response, cytotoxicity control, cell-based, fluorescence, Alamar Blue, secondary assay (AID 2327); format: functional;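 further: NIH-3T3 mouse fibroblasts cultured with fluconazole at 8 µg/mL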
[41] = biological target: T9, Serine/threonine-protein phosphatase (Candida dubliniensis (strain CD36 / CBS 7987 / NCPF 3949 / NRRLY-17841) (Yeast), UniProt B9W6M3); experiment: blockers of CaCl2-induced CDRE-lacZ signaling – S. cerevisiae, luminescence, secondary, dose response (AID 2388); format: functional, cell-based;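 further: yeast reporter cells carrying a calcineurin-responsive lacZ construct stimulated with calcium chloride; luminescent beta-galactosidase reporter signal in whole cells rather than isolated phosphatase activity; potency for inhibition where a drop in reporter signal means calcineurin blockade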
T9 sequence (B9W6M3 whole entry): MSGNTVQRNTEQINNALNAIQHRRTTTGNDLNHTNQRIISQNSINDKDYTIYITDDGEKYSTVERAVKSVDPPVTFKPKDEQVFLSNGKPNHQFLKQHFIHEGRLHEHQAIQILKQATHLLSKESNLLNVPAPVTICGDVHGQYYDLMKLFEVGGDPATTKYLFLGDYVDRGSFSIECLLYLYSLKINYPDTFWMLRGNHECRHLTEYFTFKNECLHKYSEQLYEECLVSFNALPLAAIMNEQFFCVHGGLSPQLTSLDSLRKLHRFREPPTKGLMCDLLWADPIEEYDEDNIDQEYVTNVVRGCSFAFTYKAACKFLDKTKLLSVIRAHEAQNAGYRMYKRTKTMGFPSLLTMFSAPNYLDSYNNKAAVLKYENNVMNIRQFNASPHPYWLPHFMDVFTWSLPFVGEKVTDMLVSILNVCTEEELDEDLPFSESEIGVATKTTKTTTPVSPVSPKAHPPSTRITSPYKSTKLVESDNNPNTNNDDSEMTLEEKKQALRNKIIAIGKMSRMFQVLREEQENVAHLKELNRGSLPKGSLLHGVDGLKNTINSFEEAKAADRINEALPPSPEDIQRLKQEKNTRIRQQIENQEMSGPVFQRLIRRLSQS

[42] = biological target: T8, Kappa-type opioid receptor; format: functional; remark: listed apart in the source

T8 sequence (P41145 whole entry): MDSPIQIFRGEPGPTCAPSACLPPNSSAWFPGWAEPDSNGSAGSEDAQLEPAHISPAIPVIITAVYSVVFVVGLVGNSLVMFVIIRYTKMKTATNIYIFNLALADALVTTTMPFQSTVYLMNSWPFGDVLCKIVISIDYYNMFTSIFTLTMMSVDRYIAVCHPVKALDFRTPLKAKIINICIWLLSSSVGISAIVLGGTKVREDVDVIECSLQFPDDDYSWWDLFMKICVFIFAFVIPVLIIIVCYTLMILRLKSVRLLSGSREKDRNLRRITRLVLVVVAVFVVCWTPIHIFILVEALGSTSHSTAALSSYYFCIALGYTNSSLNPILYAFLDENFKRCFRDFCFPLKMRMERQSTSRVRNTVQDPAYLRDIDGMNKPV
T3 sequence (P98170 whole entry): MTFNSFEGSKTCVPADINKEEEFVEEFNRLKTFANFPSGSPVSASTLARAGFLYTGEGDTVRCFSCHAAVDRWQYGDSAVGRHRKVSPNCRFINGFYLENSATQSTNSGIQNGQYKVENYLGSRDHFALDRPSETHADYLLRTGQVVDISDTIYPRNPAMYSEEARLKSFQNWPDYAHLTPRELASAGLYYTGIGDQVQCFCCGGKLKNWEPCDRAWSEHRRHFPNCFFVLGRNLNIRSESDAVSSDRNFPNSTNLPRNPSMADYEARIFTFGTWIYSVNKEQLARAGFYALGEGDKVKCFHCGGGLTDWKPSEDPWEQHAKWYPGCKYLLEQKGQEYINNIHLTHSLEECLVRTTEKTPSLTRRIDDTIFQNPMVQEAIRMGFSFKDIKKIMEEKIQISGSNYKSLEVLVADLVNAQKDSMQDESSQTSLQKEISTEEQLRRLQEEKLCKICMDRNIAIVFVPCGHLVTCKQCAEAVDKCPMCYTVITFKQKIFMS
T7 sequence (Q8VNN2 whole entry): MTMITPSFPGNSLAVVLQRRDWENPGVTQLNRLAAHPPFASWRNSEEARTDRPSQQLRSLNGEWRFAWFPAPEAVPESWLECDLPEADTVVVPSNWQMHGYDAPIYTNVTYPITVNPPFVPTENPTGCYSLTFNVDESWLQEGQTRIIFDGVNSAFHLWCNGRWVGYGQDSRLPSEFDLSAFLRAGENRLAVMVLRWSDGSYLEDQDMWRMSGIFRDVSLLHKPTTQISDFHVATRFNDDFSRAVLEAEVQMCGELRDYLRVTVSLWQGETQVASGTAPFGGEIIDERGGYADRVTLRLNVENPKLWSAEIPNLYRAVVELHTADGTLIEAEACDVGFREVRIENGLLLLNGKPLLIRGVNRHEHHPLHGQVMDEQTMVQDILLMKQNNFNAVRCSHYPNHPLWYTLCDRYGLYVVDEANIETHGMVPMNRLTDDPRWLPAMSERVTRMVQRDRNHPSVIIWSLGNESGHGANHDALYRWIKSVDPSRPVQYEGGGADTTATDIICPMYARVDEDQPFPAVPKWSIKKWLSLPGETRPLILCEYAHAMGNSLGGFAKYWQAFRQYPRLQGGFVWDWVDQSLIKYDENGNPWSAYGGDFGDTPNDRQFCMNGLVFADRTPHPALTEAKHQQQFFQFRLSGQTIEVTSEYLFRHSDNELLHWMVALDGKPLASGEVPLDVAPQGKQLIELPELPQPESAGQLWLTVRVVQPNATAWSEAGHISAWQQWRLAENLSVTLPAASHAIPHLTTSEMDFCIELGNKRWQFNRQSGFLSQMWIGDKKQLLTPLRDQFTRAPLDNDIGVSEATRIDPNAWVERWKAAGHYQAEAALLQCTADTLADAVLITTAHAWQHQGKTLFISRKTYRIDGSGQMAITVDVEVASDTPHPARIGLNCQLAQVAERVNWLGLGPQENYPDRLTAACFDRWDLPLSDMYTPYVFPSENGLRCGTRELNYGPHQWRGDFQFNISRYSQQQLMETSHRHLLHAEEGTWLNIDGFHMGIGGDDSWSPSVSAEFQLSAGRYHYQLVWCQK
Sequence of Transitional endoplasmic reticulum ATPase (Homo sapiens, UniProt P55072) (P55072 whole entry): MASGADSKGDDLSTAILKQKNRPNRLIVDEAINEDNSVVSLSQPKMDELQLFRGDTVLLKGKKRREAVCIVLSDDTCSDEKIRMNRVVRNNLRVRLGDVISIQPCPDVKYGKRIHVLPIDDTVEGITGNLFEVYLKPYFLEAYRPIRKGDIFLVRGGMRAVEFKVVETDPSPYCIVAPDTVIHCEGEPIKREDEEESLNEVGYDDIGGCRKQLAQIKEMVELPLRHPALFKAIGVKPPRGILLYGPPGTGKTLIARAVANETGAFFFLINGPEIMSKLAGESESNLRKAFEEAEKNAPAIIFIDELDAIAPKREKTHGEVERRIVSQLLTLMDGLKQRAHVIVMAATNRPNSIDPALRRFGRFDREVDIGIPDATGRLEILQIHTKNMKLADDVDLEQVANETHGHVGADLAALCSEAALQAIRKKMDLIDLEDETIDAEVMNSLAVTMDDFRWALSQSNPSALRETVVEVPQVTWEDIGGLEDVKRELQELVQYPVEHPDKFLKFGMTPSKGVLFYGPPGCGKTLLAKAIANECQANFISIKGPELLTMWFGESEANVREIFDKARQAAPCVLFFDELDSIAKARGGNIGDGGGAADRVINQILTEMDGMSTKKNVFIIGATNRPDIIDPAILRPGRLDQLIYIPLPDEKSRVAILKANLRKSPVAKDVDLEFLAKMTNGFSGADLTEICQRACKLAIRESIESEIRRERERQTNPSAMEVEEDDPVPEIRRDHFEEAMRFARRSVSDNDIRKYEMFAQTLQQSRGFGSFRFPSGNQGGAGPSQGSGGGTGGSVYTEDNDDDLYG
Sequence of Eukaryotic translation initiation factor 4E (P63073 whole entry): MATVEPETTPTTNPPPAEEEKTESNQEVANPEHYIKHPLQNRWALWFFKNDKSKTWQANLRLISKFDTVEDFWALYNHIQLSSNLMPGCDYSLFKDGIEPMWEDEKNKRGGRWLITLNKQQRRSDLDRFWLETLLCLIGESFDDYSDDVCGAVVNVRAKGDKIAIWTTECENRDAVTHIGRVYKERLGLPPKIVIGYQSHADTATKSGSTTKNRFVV
Sequence of Neutrophil collagenase (P22894 whole entry): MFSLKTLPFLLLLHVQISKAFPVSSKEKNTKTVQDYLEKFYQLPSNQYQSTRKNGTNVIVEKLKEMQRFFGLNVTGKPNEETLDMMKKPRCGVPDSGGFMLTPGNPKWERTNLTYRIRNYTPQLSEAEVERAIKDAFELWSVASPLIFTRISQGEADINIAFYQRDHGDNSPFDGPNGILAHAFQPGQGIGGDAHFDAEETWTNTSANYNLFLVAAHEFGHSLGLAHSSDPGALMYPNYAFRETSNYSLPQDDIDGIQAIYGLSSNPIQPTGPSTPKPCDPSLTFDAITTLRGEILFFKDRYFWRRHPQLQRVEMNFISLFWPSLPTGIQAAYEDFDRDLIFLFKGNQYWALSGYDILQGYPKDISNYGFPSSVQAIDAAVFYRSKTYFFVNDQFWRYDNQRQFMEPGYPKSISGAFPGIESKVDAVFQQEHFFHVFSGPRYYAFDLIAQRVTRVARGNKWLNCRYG
Sequence of Nonstructural protein 1 (Q194T2 whole entry): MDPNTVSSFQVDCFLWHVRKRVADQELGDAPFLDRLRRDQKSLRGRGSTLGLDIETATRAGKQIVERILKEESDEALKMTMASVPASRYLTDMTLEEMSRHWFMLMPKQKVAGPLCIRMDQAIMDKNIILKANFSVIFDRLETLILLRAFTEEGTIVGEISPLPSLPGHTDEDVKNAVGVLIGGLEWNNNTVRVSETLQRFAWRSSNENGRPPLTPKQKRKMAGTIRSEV
Sequence of Heat shock cognate 71 kDa protein (P11142 whole entry): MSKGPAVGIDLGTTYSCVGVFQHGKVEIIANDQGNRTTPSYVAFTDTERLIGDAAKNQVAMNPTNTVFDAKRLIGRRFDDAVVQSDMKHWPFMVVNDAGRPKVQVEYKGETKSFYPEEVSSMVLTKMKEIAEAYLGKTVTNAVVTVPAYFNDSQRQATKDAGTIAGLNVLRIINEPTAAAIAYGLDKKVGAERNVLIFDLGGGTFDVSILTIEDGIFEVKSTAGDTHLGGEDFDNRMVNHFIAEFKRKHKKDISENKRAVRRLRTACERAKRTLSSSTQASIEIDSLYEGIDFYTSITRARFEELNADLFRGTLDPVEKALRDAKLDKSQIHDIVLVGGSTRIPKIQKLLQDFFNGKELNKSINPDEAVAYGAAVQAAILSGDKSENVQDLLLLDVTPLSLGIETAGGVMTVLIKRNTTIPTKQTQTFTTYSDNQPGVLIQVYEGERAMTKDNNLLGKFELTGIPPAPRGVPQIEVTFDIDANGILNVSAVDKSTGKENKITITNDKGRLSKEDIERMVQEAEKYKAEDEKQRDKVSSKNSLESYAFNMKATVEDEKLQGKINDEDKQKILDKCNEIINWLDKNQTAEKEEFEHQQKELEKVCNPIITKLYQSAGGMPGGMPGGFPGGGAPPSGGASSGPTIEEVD
Sequence of ATP-dependent molecular chaperone HSP82 (C4YTQ8 whole entry): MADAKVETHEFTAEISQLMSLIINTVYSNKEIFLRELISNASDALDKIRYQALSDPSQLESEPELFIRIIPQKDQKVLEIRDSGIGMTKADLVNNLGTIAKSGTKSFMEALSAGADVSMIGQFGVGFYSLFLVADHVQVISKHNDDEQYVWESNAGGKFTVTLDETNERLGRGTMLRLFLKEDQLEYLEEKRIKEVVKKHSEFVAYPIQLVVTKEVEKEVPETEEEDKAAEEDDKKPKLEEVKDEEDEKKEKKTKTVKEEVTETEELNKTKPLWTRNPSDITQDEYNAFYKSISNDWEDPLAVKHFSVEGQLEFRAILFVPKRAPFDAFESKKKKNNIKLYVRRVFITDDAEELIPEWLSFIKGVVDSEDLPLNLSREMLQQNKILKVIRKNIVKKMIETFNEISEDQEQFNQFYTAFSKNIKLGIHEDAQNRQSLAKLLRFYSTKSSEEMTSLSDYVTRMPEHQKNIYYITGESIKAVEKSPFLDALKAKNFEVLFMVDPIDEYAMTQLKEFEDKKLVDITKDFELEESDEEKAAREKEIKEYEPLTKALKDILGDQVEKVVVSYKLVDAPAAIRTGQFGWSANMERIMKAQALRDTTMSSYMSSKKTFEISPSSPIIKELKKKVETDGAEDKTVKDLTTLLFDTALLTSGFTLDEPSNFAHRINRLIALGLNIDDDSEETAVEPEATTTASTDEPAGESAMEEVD

Compound: CCOC(=O)c1c(C)nc2cc(C)ccn12
- EC50 [1]: > 350 µM (not active)
- IC50 [2]: 28.4 µM (active)
- AC50 [3]: 285 µM (active)
- AC50 [4]: 69.7 µM (active)
- EC50 [5]: > 350 µM (not active)

Compound: CCOC(=O)c1ccc2c(c1)C1C=CCC1C(C(=O)O)N2 (configuration not stated)
- IC50 [6]: 14.7 µM (active)
- IC50 [7]: 1.08 µM (active)
- IC50 [8]: 9.87 µM (active)
- IC50 [9]: 95.4 µM (active)
- IC50 [10]: 14.2 µM (active)
- IC50 [11]: 0.997 µM (active)
- IC50 [12]: > 1.56 µM (inactive)
- IC50 [13]: 27 µM (active)
- IC50 [14]: 5.56 µM (active)
- IC50 [15]: 10.2 µM (active)
- IC50 [16]: 2.18 µM (active)
- IC50 [17]: > 10 µM (not active)
- IC50 [18]: > 100 µM (not active)

Compound: N#Cc1ccc(Nc2nc(-c3ccc(O)cc3O)cs2)cc1C(F)(F)F
- IC50 [19]: > 20 µM (inactive)
- EC50 [20]: 9.59 µM (active)
- AC50 [21]: 4.98 µM (active)
- IC50 [22]: 13.5 µM (not active)
- IC50 [23]: > 50 µM (not active)

Compound: CCCCSc1nc(O)c2c(n1)CCC2
- IC50 [24]: > 39.8 µM (active)
- IC50 [25]: > 39.8 µM (active)

Compound: Cc1cccc(OCC(=O)Nc2cc(C)nn2-c2nc(C)cc(=O)[nH]2)c1
- EC50 [26]: > 16.6 µM (active)
- EC50 [27]: > 49.7 µM (inactive)

Compound: CCOc1ccc(Oc2cnn(-c3ccc(C)cc3)c(=O)c2Cl)cc1
- IC50 [28]: 18.2 µM (inactive)
- IC50 [29]: 6.3 µM (active)

Compound: C/C(=N\NC(=O)c1cc2ccccc2cc1O)c1ccccn1
- EC50 [30]: > 31.5 µM (inactive)
- AC50 [31]: 0.729 µM (active)
- EC50 [32]: 1.02 µM (active)
- CC50 [33]: 1.93 µM (active)
- AC50 [34]: 6.63 µM (active)
- EC50 [35]: 4.08 µM (active)
- IC50 [36]: > 32 µM
- AC50 [37]: 0.958 µM (active)
- IC50 [38]: 3.77 µM (active)
- IC50 [39]: 136 µM (inactive)
- EC50 [40]: > 150 µM (inactive)
- EC50 [41]: > 180 µM (inactive)
- IC50 [42]: 2.14 µM (active)

From ChEMBL document CHEMBL1201862, “PubChem BioAssay data set” (2004)
